Source: ChEMBL document CHEMBL1201862, “PubChem BioAssay data set” (2004)
The source made the active and inactive calls.

Experiments:
Prothrombin = Prothrombin (Homo sapiens, UniProt P00734); test: Thrombin 1536 HTS Dose Response Confirmation. [Related pubchem assays: 1046 (Thrombin 1536 HTS; hits were confirmed in this assay)]; format: functional
[1] = HepG2 cell cytotoxicity, dose response, cytotoxicity control, cherry-picked samples (AID 1159577); format: functional, cell-based
[2] = P. falciparum Dd2 growth inhibitors, dose response, SYBR Green, cherry-picked samples (AID 1159567); format: functional, cell-based
BJ [3] = test: cytotoxicity toward BJ-TERT fibroblasts, dose response, cell-based, RAS-independent, luminescence (AID 1933); format: functional; conditions: Homo sapiens
BJ [4] = test: cells; format: functional, cell-based; conditions: Homo sapiens
[5] = cytotoxicity toward DRD oncogenic fibroblasts, dose response, cell-based, non-viral oncogenic, luminescence (AID 1934); format: functional; conditions: Homo sapiens
Paired box protein Pax-8 = Paired box protein Pax-8 (Homo sapiens, UniProt Q06710); test: inhibitors of PAX8-driven TPO luciferase reporter, dose response, RMG-I cells, cherry-pick (AID 687027); format: functional, cell-based;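 note: luciferase reporter driven by Pax8 target thyroperoxidase promoter measured by SteadyGlo luminescence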
BJ [6] = test: cytotoxicity toward BJ-TERT-LT-ST fibroblasts, dose response, cell-based, RAS-independent, luminescence (AID 1935); format: functional; conditions: Homo sapiens;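 note: BJ fibroblasts immortalized with TERT plus LT and ST oncogenes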
[7] = non-specific cell cytotoxicity, dose response, cytotoxicity control for PAX8 inhibitor project, plate reader, dry powder samples (AID 743021); format: functional, cell-based
[8] = HEK293T cytotoxicity, dose response, cytotoxicity control for miR-122 modulator project, cell-based, activator set, cherry-pick (AID 720690); format: functional;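 note: HEK293T human cells scored for general mammalian cytotoxicity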
[9] = miR-122 activators in hepatoma reporter cells, dose response, cell-based, Huh7 psiCHECK-miR122, Renilla luciferase, cherry-picked (AID 651956); format: functional;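 note: huh7 hepatoma cells stably carrying a psiCHECK-2 miR-122 sensor plasmid; renilla luciferase signal reporting endogenous miR-122 activity after 48 h compound exposure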
[10] = target: T1, Oxysterols receptor LXR-beta (Homo sapiens, UniProt P55055); test: LXR agonists, Gal4 luciferase reporter, dose response, counter-screen for ssDAF-12 agonist project, cell-based, luminescence, HEK293, S. stercoralis campaign (AID 720737); format: functional; conditions: read-out: IC50 (the source's name)
T1 sequence (P55055 whole entry): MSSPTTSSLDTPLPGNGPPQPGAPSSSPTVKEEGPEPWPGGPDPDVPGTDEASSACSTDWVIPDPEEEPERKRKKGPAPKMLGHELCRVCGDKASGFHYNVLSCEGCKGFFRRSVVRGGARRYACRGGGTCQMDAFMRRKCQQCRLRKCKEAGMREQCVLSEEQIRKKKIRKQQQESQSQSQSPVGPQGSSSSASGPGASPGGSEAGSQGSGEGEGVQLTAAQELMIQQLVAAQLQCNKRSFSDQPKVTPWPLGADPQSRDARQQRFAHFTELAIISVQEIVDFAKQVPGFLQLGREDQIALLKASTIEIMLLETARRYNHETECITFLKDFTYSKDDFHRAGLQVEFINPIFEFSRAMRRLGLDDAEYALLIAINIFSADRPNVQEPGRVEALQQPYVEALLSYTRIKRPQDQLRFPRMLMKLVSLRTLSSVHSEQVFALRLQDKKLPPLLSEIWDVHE

[11] = Luminescence-based cell-based high throughput dose response assay to identify activators of the DAF-12 from the parasite S. stercoralis (ssDAF-12).; format: functional
[12] = target: T2, RNA-binding protein pos-1 (Caenorhabditis elegans, UniProt G5EF15); test: inhibitors of POS-1/mex-3 RNA binding, dose response, biochemical, fluorescence polarization (AID 1964);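 note: purified POS-1 fused to maltose binding protein made in E. coli; potency of compounds blocking POS-1 binding to fluorescent RNA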
T2 sequence (G5EF15 whole entry): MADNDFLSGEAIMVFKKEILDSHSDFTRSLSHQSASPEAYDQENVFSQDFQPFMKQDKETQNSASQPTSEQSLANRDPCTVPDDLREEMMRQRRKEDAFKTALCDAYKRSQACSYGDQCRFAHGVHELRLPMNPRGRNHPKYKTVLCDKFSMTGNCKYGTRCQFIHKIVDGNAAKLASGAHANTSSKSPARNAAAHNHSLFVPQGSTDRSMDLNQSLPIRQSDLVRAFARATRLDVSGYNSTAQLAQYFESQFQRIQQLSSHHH

[13] = target: T3, Bifunctional protein GlmU (Mycobacterium tuberculosis, UniProt P9WMN3); test: Inhibitors of Mycobacterial Glucosamine-1-phosphate acetyl transferase (GlmU). Secondary screen.; parameters: species or system Mycobacterium tuberculosis H37Rv
T3 sequence (P9WMN3 whole entry): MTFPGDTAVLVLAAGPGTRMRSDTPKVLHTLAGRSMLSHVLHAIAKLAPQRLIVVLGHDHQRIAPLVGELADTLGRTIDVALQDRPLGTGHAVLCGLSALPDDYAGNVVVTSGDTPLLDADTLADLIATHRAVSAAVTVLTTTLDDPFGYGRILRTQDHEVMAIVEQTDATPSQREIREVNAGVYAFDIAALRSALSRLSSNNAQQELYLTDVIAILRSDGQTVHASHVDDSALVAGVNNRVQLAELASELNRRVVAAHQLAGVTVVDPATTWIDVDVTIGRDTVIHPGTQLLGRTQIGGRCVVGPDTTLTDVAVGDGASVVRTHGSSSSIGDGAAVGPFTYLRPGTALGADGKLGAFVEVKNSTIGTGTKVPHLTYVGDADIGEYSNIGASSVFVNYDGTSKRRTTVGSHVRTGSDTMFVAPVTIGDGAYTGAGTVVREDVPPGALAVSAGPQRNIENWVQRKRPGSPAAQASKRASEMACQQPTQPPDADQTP

[14] = target: T4, Carboxy-terminal domain RNA polymerase II polypeptide A small phosphatase 1 (Homo sapiens, UniProt Q9GZU7); test: inhibitors of CTDSP1, concentration-response testing, biochemical assay, absorbance-based, actives from ultra-high-throughput screening (AID 540297); format: functional
T4 sequence (Q9GZU7 whole entry): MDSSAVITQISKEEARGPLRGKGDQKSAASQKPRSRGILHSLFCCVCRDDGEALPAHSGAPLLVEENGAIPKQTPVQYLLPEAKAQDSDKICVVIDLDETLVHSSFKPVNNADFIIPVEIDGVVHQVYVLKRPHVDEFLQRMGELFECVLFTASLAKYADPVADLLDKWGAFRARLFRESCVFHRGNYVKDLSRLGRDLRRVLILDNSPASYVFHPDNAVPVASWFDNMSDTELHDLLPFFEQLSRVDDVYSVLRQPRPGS

[15] = target: T5, Histone-lysine N-methyltransferase NSD2 (Homo sapiens, UniProt O96028); format: biochemical
T5 sequence (O96028 whole entry): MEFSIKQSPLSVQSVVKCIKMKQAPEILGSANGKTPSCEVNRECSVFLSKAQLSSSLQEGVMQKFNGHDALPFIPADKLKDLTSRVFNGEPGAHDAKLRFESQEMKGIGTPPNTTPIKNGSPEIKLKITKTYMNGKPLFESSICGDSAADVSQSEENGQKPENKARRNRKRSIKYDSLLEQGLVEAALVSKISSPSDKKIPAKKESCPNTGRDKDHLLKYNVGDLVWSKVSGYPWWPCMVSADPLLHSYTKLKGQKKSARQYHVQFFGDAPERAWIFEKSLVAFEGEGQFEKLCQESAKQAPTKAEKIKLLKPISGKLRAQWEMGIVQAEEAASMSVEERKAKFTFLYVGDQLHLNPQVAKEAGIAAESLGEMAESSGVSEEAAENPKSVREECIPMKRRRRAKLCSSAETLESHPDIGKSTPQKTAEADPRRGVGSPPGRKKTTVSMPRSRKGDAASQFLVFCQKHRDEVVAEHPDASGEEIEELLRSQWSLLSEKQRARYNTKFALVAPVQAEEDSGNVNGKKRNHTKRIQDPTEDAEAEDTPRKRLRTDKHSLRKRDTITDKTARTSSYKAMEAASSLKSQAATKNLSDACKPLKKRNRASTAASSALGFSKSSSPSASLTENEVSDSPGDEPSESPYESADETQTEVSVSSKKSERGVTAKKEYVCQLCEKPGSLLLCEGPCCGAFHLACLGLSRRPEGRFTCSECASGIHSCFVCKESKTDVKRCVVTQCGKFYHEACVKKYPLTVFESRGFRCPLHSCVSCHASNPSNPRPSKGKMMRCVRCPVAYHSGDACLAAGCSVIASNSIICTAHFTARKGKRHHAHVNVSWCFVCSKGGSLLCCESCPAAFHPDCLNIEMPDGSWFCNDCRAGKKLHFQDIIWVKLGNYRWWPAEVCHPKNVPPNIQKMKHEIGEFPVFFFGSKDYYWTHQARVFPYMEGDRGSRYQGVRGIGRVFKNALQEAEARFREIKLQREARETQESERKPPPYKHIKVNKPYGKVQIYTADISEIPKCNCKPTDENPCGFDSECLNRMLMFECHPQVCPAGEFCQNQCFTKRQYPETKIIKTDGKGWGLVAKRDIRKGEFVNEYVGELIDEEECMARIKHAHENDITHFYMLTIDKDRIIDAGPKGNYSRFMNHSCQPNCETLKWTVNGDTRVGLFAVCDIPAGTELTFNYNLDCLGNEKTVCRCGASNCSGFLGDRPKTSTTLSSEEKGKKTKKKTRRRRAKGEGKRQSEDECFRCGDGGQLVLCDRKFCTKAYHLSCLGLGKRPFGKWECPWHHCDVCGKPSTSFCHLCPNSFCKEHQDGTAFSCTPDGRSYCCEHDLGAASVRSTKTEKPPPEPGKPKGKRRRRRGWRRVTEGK

[16] = target: T6, Zinc finger protein mex-5 (Caenorhabditis elegans, UniProt Q9XUB2); test: MEX-5/TCR-2 RNA interaction inhibitors, dose response, biochemical, C. elegans, fluorescence polarization (AID 1960)
T6 sequence (Q9XUB2 whole entry): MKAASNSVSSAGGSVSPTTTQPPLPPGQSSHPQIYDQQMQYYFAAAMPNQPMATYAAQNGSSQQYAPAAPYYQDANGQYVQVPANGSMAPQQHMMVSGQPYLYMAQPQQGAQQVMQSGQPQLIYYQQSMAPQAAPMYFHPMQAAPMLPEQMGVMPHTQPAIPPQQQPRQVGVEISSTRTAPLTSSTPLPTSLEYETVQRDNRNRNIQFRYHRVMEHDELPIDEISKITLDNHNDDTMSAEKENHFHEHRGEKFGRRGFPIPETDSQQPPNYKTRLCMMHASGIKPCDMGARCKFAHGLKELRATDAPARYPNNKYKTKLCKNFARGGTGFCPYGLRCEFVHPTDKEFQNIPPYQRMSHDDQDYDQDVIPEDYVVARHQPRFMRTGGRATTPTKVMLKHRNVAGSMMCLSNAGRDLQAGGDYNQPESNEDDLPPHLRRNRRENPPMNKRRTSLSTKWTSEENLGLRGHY

Paired box protein Pax-8, sequence (Q06710 whole entry): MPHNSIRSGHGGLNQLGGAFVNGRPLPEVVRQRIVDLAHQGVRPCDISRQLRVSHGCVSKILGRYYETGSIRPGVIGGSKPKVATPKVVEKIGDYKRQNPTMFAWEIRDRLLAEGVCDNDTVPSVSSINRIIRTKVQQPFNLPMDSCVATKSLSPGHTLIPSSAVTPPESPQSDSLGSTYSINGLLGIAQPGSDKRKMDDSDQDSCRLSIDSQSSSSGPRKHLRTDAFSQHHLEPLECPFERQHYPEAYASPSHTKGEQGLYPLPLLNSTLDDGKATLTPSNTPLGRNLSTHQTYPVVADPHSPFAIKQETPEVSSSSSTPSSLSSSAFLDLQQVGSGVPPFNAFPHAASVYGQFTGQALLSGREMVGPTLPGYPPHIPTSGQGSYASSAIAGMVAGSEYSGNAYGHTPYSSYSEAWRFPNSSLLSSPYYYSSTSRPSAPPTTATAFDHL

**Q.** With `Cc1ccc(S(=O)(=O)/N=C/c2ccco2)cc1` as the compound, how does the IC50 (Prothrombin) read?
**A.** Its IC50 is > 50 µM (not active).

**Q.** With `OC[C@@H]1[C@H](c2ccc(-c3ccc(F)cc3)cc2)[C@H](CNC2CCCC2)N1CCC(F)(F)F` as the compound, how does the AC50 [1] read?
**A.** Its AC50 is 16.5 µM (active).

**Q.** What about the AC50 [2] of the same compound?
**A.** The AC50 was 2.51 µM (active).

**Q.** With `CCCC(C)C(=O)Nc1ccc(F)c(Cl)c1` (centres undefined) as the compound, how does the IC50 (Prothrombin) read?
**A.** Its IC50 is > 50 µM (not active).

**Q.** With `O=C(NC1CCCCC1)C(c1cccnc1)N(C(=O)CCl)c1ccccc1Cl` (centres undefined) as the compound, how does the EC50 (BJ [3]) read?
**A.** Its EC50 is 3.94 µM (inconclusive).

**Q.** What about the EC50 (BJ [4]) of the same compound?
**A.** Its EC50 is > 150 µM (not active).

**Q.** What about the EC50 [5] of the same compound?
**A.** The EC50 was 37.3 µM (active).

**Q.** And the AC50 (Paired box protein Pax-8)?
**A.** Its AC50 is 6.05 µM (active).

**Q.** And the EC50 (BJ [6])?
**A.** Its EC50 is > 150 µM (not active).

**Q.** And the AC50 [7]?
**A.** Its AC50 is 11.2 µM (active).

**Q.** Which AC50 [8] does the source give for `O=C(Nc1ccccc1)N1CCCCN2[C@@H](CO)[C@H](c3ccc(C4=CCCCC4)cc3)[C@@H]2C1` here?
**A.** Its AC50 is 10 µM (active).

**Q.** What about the AC50 [9] of the same compound?
**A.** Its AC50 is 10 µM (active).

**Q.** Which results are given for `CN(/N=C/c1cccnc1)c1cnc2ccccc2n1`?
**A.** EC50 [10]: > 67.5 µM (inactive); IC50 [11]: > 67.5 µM (inactive)

**Q.** Which EC50 [12] does the source give for `CC(=O)NC1=NC(=O)/C(=C/c2cc(C)n(-c3cccc(C(=O)O)c3)c2C)S1` here?
**A.** The EC50 was > 300 µM (not active).

**Q.** And the IC50 [13]?
**A.** Its IC50 is 93.8 µM (active).

**Q.** What about the IC50 [14] of the same compound?
**A.** Its IC50 is 4.31 µM (active).

**Q.** What about the AC50 [15] of the same compound?
**A.** The AC50 was 9.13 µM (active).

**Q.** And the EC50 [16]?
**A.** The EC50 was > 300 µM (inconclusive).
